Read-outs that look alike come from different tables or passages of the source.
Tests used:
[1] = system: IL-2 induced pSTAT5; test: Murine model of IL-2 induced pSTAT5 induction in the thymus; format: in vivo
[2] = system: oxazolone-induced colitis model in mice; test: Oxazolone-induced colitis model in mice; format: in vivo
Excerpt: Oxazolone-induced colitis is an experimental model that has a histological resemblance to human ulcerative colitis.

[3] = Colon and plasma mouse pharmacokinetics; format: in vivo
[4] = biological target: T1, JAK3 (Homo sapiens, UniProt P52333); test: Co-crystal structure with human JAK3; format: binding
T1 sequence (P52333 1-1124): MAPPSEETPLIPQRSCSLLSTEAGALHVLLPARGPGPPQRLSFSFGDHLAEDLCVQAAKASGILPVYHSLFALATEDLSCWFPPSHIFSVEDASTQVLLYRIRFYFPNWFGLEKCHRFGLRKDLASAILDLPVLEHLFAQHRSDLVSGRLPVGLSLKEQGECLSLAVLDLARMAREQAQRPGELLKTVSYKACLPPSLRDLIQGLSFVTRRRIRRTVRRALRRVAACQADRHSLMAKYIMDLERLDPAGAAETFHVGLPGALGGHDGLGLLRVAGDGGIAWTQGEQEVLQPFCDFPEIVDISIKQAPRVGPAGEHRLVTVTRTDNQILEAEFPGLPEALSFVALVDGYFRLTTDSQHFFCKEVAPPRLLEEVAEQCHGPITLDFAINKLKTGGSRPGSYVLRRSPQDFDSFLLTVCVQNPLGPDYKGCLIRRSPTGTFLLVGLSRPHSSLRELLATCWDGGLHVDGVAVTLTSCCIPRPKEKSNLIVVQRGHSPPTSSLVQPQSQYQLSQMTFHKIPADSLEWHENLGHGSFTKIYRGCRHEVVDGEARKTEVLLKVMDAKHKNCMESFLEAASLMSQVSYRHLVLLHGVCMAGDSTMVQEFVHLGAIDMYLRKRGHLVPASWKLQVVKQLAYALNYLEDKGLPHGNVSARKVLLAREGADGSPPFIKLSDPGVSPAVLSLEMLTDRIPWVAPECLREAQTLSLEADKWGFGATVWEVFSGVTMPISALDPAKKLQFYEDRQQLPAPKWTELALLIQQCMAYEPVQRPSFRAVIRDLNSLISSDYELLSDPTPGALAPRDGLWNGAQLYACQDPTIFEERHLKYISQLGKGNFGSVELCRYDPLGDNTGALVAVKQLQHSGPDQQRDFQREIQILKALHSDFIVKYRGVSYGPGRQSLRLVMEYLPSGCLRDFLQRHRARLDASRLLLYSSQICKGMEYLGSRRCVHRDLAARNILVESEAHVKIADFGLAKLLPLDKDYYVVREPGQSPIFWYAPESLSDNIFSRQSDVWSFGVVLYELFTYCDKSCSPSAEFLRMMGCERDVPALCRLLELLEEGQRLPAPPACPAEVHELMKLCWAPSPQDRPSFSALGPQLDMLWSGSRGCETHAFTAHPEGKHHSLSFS
Excerpt: Such covalent binding to JAK3 could be beneficial by providing an extended target engagement which may translate in better efficacy.

[5] = Phase 1 pharmacokinetics across all SAD and MAD cohorts; format: in vivo; conditions: human, plasma, oral
Method: (§1) The plasma PK parameters of the compound of formula (I) calculated following single (Part A) or multiple (Parts B) oral doses.
(§2) For all subjects, blood samples for the determination of plasma concentration of the compound of formula (I) were collected at scheduled time points. Blood samples were analyzed to calculate different plasma PK parameters in both part A and part B.
(§3) For all PK data analyses, the PK analysis set was used. Individual subject and mean plasma drug concentration versus time curves for the compound of formula (I) were presented for each dose group. Summary statistics (mean, standard deviation, coefficient of variation, median, minimum, maximum, geometric mean, geometric coefficient of variation, number of subjects) were calculated for plasma concentrations at each time point for each dose group, and the PK parameters for each dose group. Urine PK parameters were summarized for exploratory purposes.

[6] = Phase 1 MAD (Part B) plasma pharmacokinetics in healthy subjects; format: in vivo, human; conditions: for half-life: read-out: t1/2, mean (SD) (converted); for AUC: part B (MAD), 100 to 1000 mg BID
Method: as §1
In each cohort, healthy subjects meeting eligibility criteria were sequentially randomized in a 3:1 ratio to receive either the compound of formula (I) or placebo BID, each morning and evening (approximately 12 hours following the morning dose) for 10 consecutive days of dosing, except for Day 10 where subjects were only received a morning dose. Subjects were dosed in an upright (i.e., seated or standing) position and remained upright for 5 minutes after dosing before a posture change for other study procedures, if applicable. Subjects fasted overnight for at least 9.5 hours prior to morning dose on Day 1 and Day 10. Subjects continued the fast for at least 4 hours post morning dose on these days. For all other morning doses and for all evening doses (i.e., Day 1 evening and Days 2 to 9), subjects were required to fast for at least 2 hours prior and for at least 2 hours following the dose.
PK sampling for the compound of formula (I) in plasma was taken Day 1 pre-morning dose and for 12 hours post-dose and Day 10 pre-morning dose and for 72 hours post Day 10 dose. Additional pre morning dose samples were taken on Days 2, 4, 6, and 8.
as §2, §3

[7] = plasma, Day 1, 100 mg BID, n = 6
[8] = plasma, Day 1, 300 mg BID, n = 6
[9] = plasma, Day 1, 1000 mg BID, n = 6
[10] = plasma, Day 10, 100 mg BID, n = 6
[11] = plasma, Day 10, 300 mg BID, n = 6

With CN(C)C/C=C/C(=O)N1CC(COc2cc(-c3ccc(O)cc3)cc3[nH]ncc23)C1 [compound of formula (I)] the “systemic activity (IL-2 induced pSTAT5 induction in the thymus)” value [1] was “lack of systemic activity”, the “activity in the oxazolone-induced colitis model” value [2] was “demonstrated activity” and the Kp ([3]; colon/plasma, mouse, oral administration, read-out: ratio of exposure in the colon to exposure in plasma) was > 1250. The “permeability coefficient (Papp)” value ([3]; stated in the sentence on the colon and plasma mouse pharmacokinetics study) was “less than 10×10^−6 cm/sec”, the “binding nature to JAK3 (co-crystal structure, covalent bond with Cys909)” value [4] was “irreversible binding” and the half-life ([5]; across all doses in the SAD and MAD cohorts, read-out: mean terminal elimination half-life) was 900 to 1200 min. For the same compound, the Cmax ([5]; across all doses, read-out: highest observed Cmax) was 34.3 ng/mL, the “time to steady state” value ([6]; 100 mg BID) was 7 days and the “Accumulation ratio (AUC0-12,ss/AUC0-12), Geometric mean (CV %)” value (“Accumulation ratio … (CV %)” for short) ([6]; 100 mg BID, n = 6) was 2.5 (35.2). The “Accumulation ratio (AUC0-12,ss/AUC0-12), Mean (SD)” value (from here on “Accumulation ratio … (SD)”) ([6]; 100 mg BID, n = 6) was 2.6 (0.78), the “time to steady state” value ([6]; 300 mg BID) was 3 days and the “Accumulation ratio … (CV %)” value ([6]; 300 mg BID, n = 6) was 2.3 (51.9). For the same compound, the “Accumulation ratio … (SD)” value ([6]; 300 mg BID, n = 6) was 2.5 (1.1), the “fold mean Cmax,ss below the protein-adjusted JAK3 IC50” value ([6]; 1000 mg BID) was “approximately 11 fold” and the “time to steady state” value ([6]; 1000 mg BID) was 3 days. The “Accumulation ratio … (CV %)” value ([6]; 1000 mg BID, n = 6) was 2.3 (92.5), the “Accumulation ratio … (SD)” value ([6]; 1000 mg BID, n = 6) was 2.9 (1.7) and the “dose proportionality of exposure (AUC and Cmax)” value ([6]; after multiple-dose administration) was “dose proportionally”. The Tmax ([6]; both sexes, human, oral, plasma, Day 10 (morning dose), 100 mg BID, n = 6, read-out: Tmax,ss, median (min, max)) was 2 h, the half-life ([6]; both sexes, human, oral, plasma, Day 10 (morning dose), 100 mg BID, n = 6) was 1190 min and the Tmax ([6]; both sexes, human, oral, plasma, Day 10 (morning dose), 300 mg BID, n = 6, read-out: Tmax,ss, median (min, max)) was 1 h. The half-life ([6]; both sexes, human, oral, plasma, Day 10 (morning dose), 300 mg BID, n = 6) was 1150 min, the Tmax ([6]; both sexes, human, oral, plasma, Day 10 (morning dose), 1000 mg BID, n = 6, read-out: Tmax,ss, median (min, max)) was 1 h and the half-life ([6]; both sexes, human, oral, plasma, Day 10 (morning dose), 1000 mg BID, n = 6) was 1110 min. For the same compound, the AUC(0-t) ([6]; both sexes, human, plasma, oral, 100 mg, plasma, Day 1 (morning dose), 100 mg BID, n = 6, read-out: AUC0-12, mean (SD)) was 3.5 ng·h/mL, the AUC(0-t) ([6]; both sexes, human, plasma, oral, 100 mg, plasma, Day 10 (morning dose), 100 mg BID, n = 6, read-out: AUC0-12,ss, mean (SD)) was 8.9 ng·h/mL and the Cmax ([6]; both sexes, human, plasma, oral, 100 mg, plasma, Day 10 (morning dose), 100 mg BID, n = 6, read-out: Cmax,ss, mean (SD)) was 1.7 ng/mL. The AUC(0-t) ([6]; both sexes, human, plasma, oral, 300 mg, plasma, Day 1 (morning dose), 300 mg BID, n = 6, read-out: AUC0-12, mean (SD)) was 8.5 ng·h/mL, the AUC(0-t) ([6]; both sexes, human, plasma, oral, 300 mg, plasma, Day 10 (morning dose), 300 mg BID, n = 6, read-out: AUC0-12,ss, mean (SD)) was 16.9 ng·h/mL and the Cmax ([6]; both sexes, human, plasma, oral, 300 mg, plasma, Day 10 (morning dose), 300 mg BID, n = 6, read-out: Cmax,ss, mean (SD)) was 3.5 ng/mL. The AUC(0-t) ([6]; both sexes, human, plasma, oral, 1000 mg, plasma, Day 1 (morning dose), 1000 mg BID, n = 6, read-out: AUC0-12, mean (SD)) was 37.4 ng·h/mL, the AUC(0-t) ([6]; both sexes, human, plasma, oral, 1000 mg, plasma, Day 10 (morning dose), 1000 mg BID, n = 6, read-out: AUC0-12,ss, mean (SD)) was 62.1 ng·h/mL and the Cmax ([6]; both sexes, human, plasma, oral, 1000 mg, plasma, Day 10 (morning dose), 1000 mg BID, n = 6, read-out: Cmax,ss, mean (SD)) was 13.3 ng/mL. The Tmax ([6]; human, oral, plasma, Day 1 (morning dose), 100 mg BID, n = 6, read-out: Tmax, median (min, max)) was 1.5 h, the Tmax ([6]; human, oral, plasma, Day 1 (morning dose), 300 mg BID, n = 6, read-out: Tmax, median (min, max)) was 1 h and the Tmax ([6]; human, oral, plasma, Day 1 (morning dose), 1000 mg BID, n = 6, read-out: Tmax, median (min, max)) was 1.5 h. It also gave a Cmax ([6]; human, plasma, oral, 100 mg, plasma, Day 1 (morning dose), 100 mg BID, n = 6, read-out: Cmax, mean (SD)) of 0.78 ng/mL, a Cmax ([6]; human, plasma, oral, 300 mg, plasma, Day 1 (morning dose), 300 mg BID, n = 6, read-out: Cmax, mean (SD)) of 2.6 ng/mL and a Cmax ([6]; human, plasma, oral, 1000 mg, highest tested dose (1000 mg BID), read-out: mean Cmax,ss (maximum observed concentration at steady-state)) of 13 ng/mL. The Cmax ([6]; human, plasma, oral, 1000 mg, plasma, Day 1 (morning dose), 1000 mg BID, n = 6, read-out: Cmax, mean (SD)) was 10.7 ng/mL, the AUC ([6]; human, plasma, oral, read-out: AUCss0-12 in the plasma of the subjects (range)) was 5.43 to 88.5 ng·h/mL and the AUC ([6]; human, plasma, oral, read-out: average AUCss0-12) was 8.94 to 62.1 ng·h/mL. For the same compound, the concentration at 10 days ([6]; human, plasma, oral, multiple doses up to 1000 mg BID, read-out: Plasma concentrations) was < 35 ng/mL, the “Dose normalized AUC0-12/D, mean (SD)” value [6, 7] was 0.035 (0.012) ng*hr/mL/mg and the “Dose normalized Cmax/D, mean (SD)” value [6, 7] was 0.0078 (0.0033) ng/mL/mg. For the same compound, the “Dose normalized AUC0-12/D, mean (SD)” value [6, 8] was 0.028 (0.016) ng*hr/mL/mg, the “Dose normalized Cmax/D, mean (SD)” value [6, 8] was 0.0086 (0.0079) ng/mL/mg and the “Dose normalized AUC0-12/D, mean (SD)” value [6, 9] was 0.037 (0.039) ng*hr/mL/mg. The “Dose normalized Cmax/D, mean (SD)” value [6, 9] was 0.011 (0.013) ng/mL/mg, the “Dose normalized AUC0-12,ss/D, mean (SD)” value [6, 10] was 0.089 (0.036) ng*hr/mL/mg and the “Dose normalized Cmax,ss/D, mean (SD)” value [6, 10] was 0.017 (0.0080) ng/mL/mg. The “Dose normalized AUC0-12,ss/D, mean (SD)” value [6, 11] was 0.056 (0.012) ng*hr/mL/mg, the “Dose normalized Cmax,ss/D, mean (SD)” value [6, 11] was 0.012 (0.0045) ng/mL/mg and the “Dose normalized Cmax,ss/D, mean (SD)” value ([6]; plasma, Day 10, 1000 mg BID, n = 6) was 0.013 (0.0084) ng/mL/mg.

Reference: patent publication US11471442B2, “Administration of gut-selective JAK3 inhibitor” (THERAVANCE BIOPHARMA R&D IP, LLC, priority 2020, dated 2022)
